Literature values, collected in US11472851B2, “Recombinant bacillus subtilis and application thereof” (priority 2019, dated 2022).

## Sublancin (GLGKAQCAALWLQCASGGTIGCGGGAVACQNYRQFCR; Sublancin)
poultry
  immune function of poultry: enhance the immune function of poultry
macrophages
  phagocytosis of macrophages: enhance the phagocytosis of macrophages
